Laboratory results from PubChem BioAssay (NCI).
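Following 48 hours of exposure in 96-well plates, responses at five concentrations were used to interpolate endpoints linearly. The concentration for 50% growth inhibition is given as GI50. The concentration for full growth arrest is given as TGI.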

Legend:
Assay in all cases: growth of human tumour cells (NCI), 48 h; in the data active = GI50 below about 0.43 µM; inactive = the rest
[1] = system: K-562 leukemia
[2] = system: 786-0 renal
[3] = system: SK-OV-3 ovarian
[4] = system: HS 578T breast
[5] = system: SNB-19 CNS
[6] = system: IGROV1 ovarian
[7] = system: SNB-75 CNS
[8] = system: HOP-92 NSCLC
[9] = system: RXF 393 renal
[10] = system: BT-549 breast
[11] = system: MALME-3M melanoma
[12] = system: NCI-H522 lung
[13] = system: SF-295 CNS
[14] = system: MDA-MB-231 breast
[15] = system: SF-268 CNS
[16] = system: HOP-62 NSCLC
[17] = system: UACC-62 melanoma

N#C/C(=C\c1ccc(-c2ccc(Cl)cc2)o1)C(=O)Nc1ncc(Cc2ccc(Br)cc2)s1
8.28 µM: TGI [8]
inactive: GI50 [1] 4.47 µM | GI50 [2] 2.45 µM | GI50 [3] 3.92 µM | GI50 [4] 1.23 µM | GI50 [5] 3.58 µM | GI50 [6] 2.89 µM | GI50 [7] 0.794 µM | GI50 [8] 1.13 µM | GI50 [9] 8.85 µM | GI50 [10] 1.84 µM | GI50 [11] 1.55 µM | GI50 [12] 2.64 µM | GI50 [13] 5.22 µM | GI50 [14] 3.38 µM | GI50 [15] 3.73 µM | GI50 [16] 2.47 µM | GI50 [17] 2.95 µM
> 100 µM: TGI [1] | TGI [5] | TGI [6] | TGI [12] | TGI [14] | TGI [15] | TGI [16] | TGI [17]
51.5 µM: TGI [13]
3.83 µM: TGI [7]
8.69 µM: TGI [10]
25.9 µM: TGI [3]
33.7 µM: TGI [9]
4.26 µM: TGI [11]
6.27 µM: TGI [4]
6.8 µM: TGI [2]
